In PubChem BioAssay (NCI):
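These data come from cells grown in 96-well plates and exposed to compound for 48 hours at five concentrations. Definition used: TGI = concentration required for complete inhibition of growth.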

Tests used:
Test in all cases: NCI tumour cell line growth inhibition, 48 h
TK-10 renal = system: TK-10 renal
SF-268 CNS = system: SF-268 CNS
OVCAR-5 ovarian = system: OVCAR-5 ovarian
MOLT-4 leukemia = system: MOLT-4 leukemia
IGROV1 ovarian = system: IGROV1 ovarian
MDA-MB-435 = system: MDA-MB-435
HOP-92 NSCLC = system: HOP-92 NSCLC
KM12 colon = system: KM12 colon
SNB-19 CNS = system: SNB-19 CNS
A549 NSCLC = system: A549 NSCLC
SNB-75 CNS = system: SNB-75 CNS
SN12C renal = system: SN12C renal
HOP-62 NSCLC = system: HOP-62 NSCLC
U251 CNS = system: U251 CNS
SK-MEL-5 melanoma = system: SK-MEL-5 melanoma
SF-539 CNS = system: SF-539 CNS
K-562 leukemia = system: K-562 leukemia
HCC-2998 colon = system: HCC-2998 colon
A498 renal = system: A498 renal
HL-60(TB) leukemia = system: HL-60(TB) leukemia

Structure (SMILES): CCCCCCCCCCCC(=O)Oc1c(Cl)cc(Cl)c(OC(=O)C(=O)Oc2c(Cl)cc(Cl)c(OC(=O)CCCCCCCCCCC)c2Cl)c1Cl
- TGI (TK-10 renal): > 100 µM
- TGI (SF-268 CNS): > 100 µM
- TGI (OVCAR-5 ovarian): > 100 µM
- TGI (MOLT-4 leukemia): > 100 µM
- TGI (IGROV1 ovarian): > 100 µM
- TGI (MDA-MB-435): > 100 µM
- TGI (HOP-92 NSCLC): > 100 µM
- TGI (KM12 colon): > 100 µM
- TGI (SNB-19 CNS): > 100 µM
- TGI (A549 NSCLC): > 100 µM
- TGI (SNB-75 CNS): > 100 µM
- TGI (SN12C renal): > 100 µM
- TGI (HOP-62 NSCLC): > 100 µM
- TGI (U251 CNS): > 100 µM
- TGI (SK-MEL-5 melanoma): > 100 µM

Structure (SMILES): N=c1oc2cc(O)ccc2cc1C(=O)NCc1ccccc1
- TGI (TK-10 renal): > 100 µM
- TGI (SF-268 CNS): 76.3 µM
- TGI (OVCAR-5 ovarian): > 100 µM
- TGI (MOLT-4 leukemia): 53.3 µM
- TGI (IGROV1 ovarian): > 100 µM
- TGI (MDA-MB-435): 58.3 µM
- TGI (SF-539 CNS): 63.3 µM
- TGI (K-562 leukemia): 28.2 µM
- TGI (KM12 colon): > 100 µM
- TGI (SNB-19 CNS): 96.9 µM
- TGI (A549 NSCLC): > 100 µM
- TGI (SNB-75 CNS): 43.8 µM
- TGI (SN12C renal): 48.8 µM
- TGI (HOP-62 NSCLC): > 100 µM
- TGI (U251 CNS): > 100 µM
- TGI (SK-MEL-5 melanoma): 29.5 µM

Structure (SMILES): C[C@H](OCc1ccccc1)C(=O)N1CCS(=O)(=O)N2CCC[C@H]2C1=O
- TGI (HCC-2998 colon): > 100 µM
- TGI (TK-10 renal): > 100 µM
- TGI (SF-268 CNS): > 100 µM
- TGI (OVCAR-5 ovarian): > 100 µM
- TGI (MOLT-4 leukemia): > 100 µM
- TGI (IGROV1 ovarian): > 100 µM
- TGI (HOP-92 NSCLC): > 100 µM
- TGI (A498 renal): > 100 µM
- TGI (HL-60(TB) leukemia): > 100 µM
- TGI (SF-539 CNS): > 100 µM
- TGI (K-562 leukemia): > 100 µM
- TGI (KM12 colon): > 100 µM
- TGI (SNB-19 CNS): > 100 µM
- TGI (A549 NSCLC): > 100 µM
- TGI (SNB-75 CNS): > 100 µM
- TGI (SN12C renal): > 100 µM
- TGI (HOP-62 NSCLC): > 100 µM
- TGI (U251 CNS): > 100 µM
- TGI (SK-MEL-5 melanoma): > 100 µM

Structure (SMILES): O=C(/C=C/c1ccccc1)/C=N/N1C(=S)N(c2ccccc2)C(=Nc2ccccc2)C1=Nc1ccccc1
- TGI (HCC-2998 colon): > 100 µM
- TGI (TK-10 renal): > 100 µM
- TGI (SF-268 CNS): > 100 µM
- TGI (OVCAR-5 ovarian): > 100 µM
- TGI (MOLT-4 leukemia): > 100 µM
- TGI (IGROV1 ovarian): > 100 µM
- TGI (HOP-92 NSCLC): > 100 µM
- TGI (SF-539 CNS): > 100 µM
- TGI (K-562 leukemia): > 100 µM
- TGI (KM12 colon): > 100 µM
- TGI (SNB-19 CNS): > 100 µM
- TGI (A549 NSCLC): > 100 µM
- TGI (SN12C renal): > 100 µM
- TGI (HOP-62 NSCLC): > 100 µM
- TGI (U251 CNS): > 100 µM
- TGI (SK-MEL-5 melanoma): > 100 µM

Structure (SMILES): COc1cc(Cn2c3ccccc3c3cc(C)c4c(c32)C=CC(C)(CCC=C(C)C)O4)cc2c1[nH]c1ccccc12 (centres undefined)
- TGI (HCC-2998 colon): > 100 µM
- TGI (TK-10 renal): > 100 µM
- TGI (SF-268 CNS): > 100 µM
- TGI (OVCAR-5 ovarian): > 100 µM
- TGI (MOLT-4 leukemia): > 100 µM
- TGI (IGROV1 ovarian): > 100 µM
- TGI (HOP-92 NSCLC): > 100 µM
- TGI (A498 renal): > 100 µM
- TGI (HL-60(TB) leukemia): > 100 µM
- TGI (SF-539 CNS): > 100 µM
- TGI (K-562 leukemia): > 100 µM
- TGI (KM12 colon): > 100 µM
- TGI (SNB-19 CNS): > 100 µM
- TGI (A549 NSCLC): > 100 µM
- TGI (SNB-75 CNS): > 100 µM
- TGI (SN12C renal): > 100 µM
- TGI (HOP-62 NSCLC): > 100 µM
- TGI (U251 CNS): > 100 µM
- TGI (SK-MEL-5 melanoma): > 100 µM

Structure (SMILES): COC(=O)C(CC12CC3CC(CC(C3)C1)C2)NC(=O)C(N)CC(=O)O (centres undefined)
- TGI (HCC-2998 colon): > 100 µM
- TGI (TK-10 renal): > 100 µM
- TGI (SF-268 CNS): > 100 µM
- TGI (OVCAR-5 ovarian): > 100 µM
- TGI (MOLT-4 leukemia): > 100 µM
- TGI (IGROV1 ovarian): > 100 µM
- TGI (MDA-MB-435): > 100 µM
- TGI (HOP-92 NSCLC): > 100 µM
- TGI (K-562 leukemia): > 100 µM
- TGI (KM12 colon): > 100 µM
- TGI (SNB-19 CNS): > 100 µM
- TGI (A549 NSCLC): > 100 µM
- TGI (SNB-75 CNS): > 100 µM
- TGI (SN12C renal): > 100 µM
- TGI (HOP-62 NSCLC): > 100 µM
- TGI (U251 CNS): > 100 µM
- TGI (SK-MEL-5 melanoma): > 100 µM

Structure (SMILES): CC(=O)N1C(c2[nH]c3ccccc3c2-c2ccccc2)CCN1c1ccccc1 (centres undefined)
- TGI (HCC-2998 colon): > 10 µM
- TGI (TK-10 renal): > 10 µM
- TGI (SF-268 CNS): > 10 µM
- TGI (OVCAR-5 ovarian): > 10 µM
- TGI (MOLT-4 leukemia): > 10 µM
- TGI (IGROV1 ovarian): > 10 µM
- TGI (MDA-MB-435): > 10 µM
- TGI (HL-60(TB) leukemia): > 10 µM
- TGI (SF-539 CNS): > 10 µM
- TGI (K-562 leukemia): > 10 µM
- TGI (SNB-19 CNS): > 10 µM
- TGI (A549 NSCLC): > 10 µM
- TGI (SNB-75 CNS): > 10 µM
- TGI (SN12C renal): > 10 µM
- TGI (HOP-62 NSCLC): > 10 µM
- TGI (SK-MEL-5 melanoma): > 10 µM

Structure (SMILES): O=C(c1cccc2ccccc12)C1(Br)S(=O)(=O)OCCOS1(=O)=O
- TGI (HCC-2998 colon): > 100 µM
- TGI (TK-10 renal): > 100 µM
- TGI (OVCAR-5 ovarian): > 100 µM
- TGI (MOLT-4 leukemia): > 100 µM
- TGI (MDA-MB-435): > 100 µM
- TGI (HL-60(TB) leukemia): > 100 µM
- TGI (KM12 colon): > 100 µM
- TGI (SNB-19 CNS): > 100 µM
- TGI (A549 NSCLC): > 100 µM
- TGI (SN12C renal): > 100 µM
- TGI (HOP-62 NSCLC): > 100 µM
- TGI (U251 CNS): > 100 µM
- TGI (SK-MEL-5 melanoma): > 100 µM

Structure (SMILES): CCOC(=O)c1ccc(N=C2C(=S)N(c3ccc(C(=O)OCC)cc3)C(=N)N2/N=C/c2ccccc2)cc1
- TGI (HCC-2998 colon): 58 µM
- TGI (TK-10 renal): 62.2 µM
- TGI (SF-268 CNS): 52 µM
- TGI (OVCAR-5 ovarian): 40.5 µM
- TGI (IGROV1 ovarian): > 100 µM
- TGI (HOP-92 NSCLC): 36.2 µM
- TGI (SF-539 CNS): 51.2 µM
- TGI (K-562 leukemia): > 100 µM
- TGI (KM12 colon): 31.2 µM
- TGI (SNB-19 CNS): 44.5 µM
- TGI (A549 NSCLC): > 100 µM
- TGI (SN12C renal): 41.3 µM
- TGI (SK-MEL-5 melanoma): 35.6 µM

Structure (SMILES): CCOC(=O)c1c(N)sc2c1C(C(=O)OCC)CC2 (centres undefined)
- TGI (HCC-2998 colon): > 100 µM
- TGI (TK-10 renal): > 100 µM
- TGI (OVCAR-5 ovarian): > 100 µM
- TGI (MOLT-4 leukemia): > 100 µM
- TGI (IGROV1 ovarian): > 100 µM
- TGI (HOP-92 NSCLC): > 100 µM
- TGI (A498 renal): 82.1 µM
- TGI (HL-60(TB) leukemia): > 100 µM
- TGI (K-562 leukemia): > 100 µM
- TGI (KM12 colon): > 100 µM
- TGI (SNB-19 CNS): > 100 µM
- TGI (A549 NSCLC): > 100 µM
- TGI (SNB-75 CNS): > 100 µM
- TGI (SN12C renal): > 100 µM
- TGI (HOP-62 NSCLC): > 100 µM
- TGI (U251 CNS): > 100 µM
- TGI (SK-MEL-5 melanoma): > 100 µM

Structure (SMILES): CC1=C(C(=O)O)N2C(=O)[C@@H](NC(=O)C(c3ccc(O)cc3)N3CSC(=S)N(C(C)C)C3)C2SC1 (some centres undefined)
- TGI (TK-10 renal): > 100 µM
- TGI (SF-268 CNS): > 100 µM
- TGI (OVCAR-5 ovarian): > 100 µM
- TGI (MOLT-4 leukemia): > 100 µM
- TGI (IGROV1 ovarian): > 100 µM
- TGI (HOP-92 NSCLC): > 100 µM
- TGI (A498 renal): > 100 µM
- TGI (HL-60(TB) leukemia): > 100 µM
- TGI (SF-539 CNS): > 100 µM
- TGI (K-562 leukemia): > 100 µM
- TGI (KM12 colon): > 100 µM
- TGI (SNB-19 CNS): > 100 µM
- TGI (A549 NSCLC): > 100 µM
- TGI (SNB-75 CNS): > 100 µM
- TGI (SN12C renal): > 100 µM
- TGI (HOP-62 NSCLC): > 100 µM
- TGI (U251 CNS): > 100 µM
- TGI (SK-MEL-5 melanoma): > 100 µM
